Consider 4 molecules from PMC8341778, “Deciphering the substrate recognition mechanisms of the heparan sulfate 3-O-sulfotransferase-3” (RSC Chemical Biology, 2021).

Molecules are shown by their SMILES.

Test [1] addresses T1, 3-OST-3 (Homo sapiens, UniProt Q9Y663).
T1 construct: gene HS3ST3A1; purified enzyme; two molecules in the asymmetric unit
T1 sequence (Q9Y663 1-406): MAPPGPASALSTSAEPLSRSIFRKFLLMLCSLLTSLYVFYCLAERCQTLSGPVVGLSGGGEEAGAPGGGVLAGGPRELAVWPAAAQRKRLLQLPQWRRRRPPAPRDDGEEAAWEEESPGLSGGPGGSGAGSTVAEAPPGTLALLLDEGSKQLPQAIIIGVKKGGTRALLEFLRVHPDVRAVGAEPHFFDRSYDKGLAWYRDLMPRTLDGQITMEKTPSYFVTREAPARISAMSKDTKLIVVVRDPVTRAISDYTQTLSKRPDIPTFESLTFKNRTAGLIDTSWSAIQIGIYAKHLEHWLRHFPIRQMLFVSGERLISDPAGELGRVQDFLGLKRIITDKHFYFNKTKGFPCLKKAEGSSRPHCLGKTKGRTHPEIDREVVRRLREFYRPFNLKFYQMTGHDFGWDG
The experiment in a line: crystal structure of ternary complex, […] Å. Type of test: binding. Particulars: with PAP; sodium ion at saccharides f and g.

Test [2] deals with T1, 3-OST-3. In words: inhibition of sulfotransferase activity. Format: biochemical.
For test [3], the target named is T1, 3-OST-3. In words: isothermal titration calorimetry. Format: binding. A general note: Isothermal titration calorimetry measures the heat released or taken up as one component is titrated into another.

Take `CC(=O)N[C@H]1[C@@H](O[C@H]2[C@H](O)[C@@H](O)[C@H](O[C@H]3[C@H](O)[C@@H](NS(=O)(=O)O)[C@@H](O[C@H]4[C@H](O)[C@@H](OS(=O)(=O)O)[C@H](O[C@H]5[C@H](O)[C@@H](NS(=O)(=O)O)[C@@H](O[C@H]6[C@H](O)[C@@H](OS(=O)(=O)O)[C@H](O[C@H]7[C@H](O)[C@@H](NS(=O)(=O)O)[C@@H](O[C@H]8[C@H](O)[C@@H](O)[C@H](Oc9ccc([N+](=O)[O-])cc9)O[C@@H]8C(=O)O)O[C@@H]7CO)O[C@H]6C(=O)O)O[C@@H]5CO)O[C@H]4C(=O)O)O[C@@H]3CO)O[C@@H]2C(=O)O)O[C@H](CO)[C@@H](O)[C@@H]1O` [8-mer 1]: the “crystal structure of ternary complex, 2.34 Å” value in test [1] was “crystal structures of 3-OST-3 in the presence of PAP, the sulfo donor product analog”.
By IC50 is commonly meant the concentration that inhibits the measured activity by half. A low value points to greater potency in that assay. The Kd is the concentration at which binding is half-saturated. Turning to `CC(=O)N[C@H]1[C@@H](O[C@H]2[C@H](O)[C@@H](O)[C@H](O[C@H]3[C@H](O)[C@@H](NS(=O)(=O)O)[C@@H](O[C@H]4[C@H](O)[C@@H](OS(=O)(=O)O)[C@H](O[C@H]5[C@H](OS(=O)(=O)O)[C@@H](NS(=O)(=O)O)[C@@H](O[C@H]6[C@H](O)[C@@H](OS(=O)(=O)O)[C@H](O[C@H]7[C@H](O)[C@@H](NS(=O)(=O)O)[C@@H](O[C@H]8[C@H](O)[C@@H](O)[C@H](Oc9ccc([N+](=O)[O-])cc9)O[C@@H]8C(=O)O)O[C@@H]7CO)O[C@H]6C(=O)O)O[C@@H]5CO)O[C@H]4C(=O)O)O[C@@H]3CO)O[C@@H]2C(=O)O)O[C@H](CO)[C@@H](O)[C@@H]1O` [8-mer 2], in test [2] (product inhibition, 8-mer 1 sulfation), the IC50 is ~1000 nM. In test [3], the affinity, expressed as Kd, was 74000 nM.
Molecule `CC(=O)N[C@H]1[C@@H](O[C@H]2[C@H](O)[C@@H](O)[C@H](O[C@H]3[C@H](O)[C@@H](NS(=O)(=O)O)[C@@H](O[C@H]4[C@H](O)[C@@H](OS(=O)(=O)O)[C@H](O[C@H]5[C@H](O)[C@@H](NS(=O)(=O)O)[C@@H](O[C@H]6[C@H](O)[C@@H](OS(=O)(=O)O)[C@H](O[C@H]7[C@H](O)[C@@H](NS(=O)(=O)O)[C@@H](O[C@H]8[C@H](O)[C@@H](O)[C@H](Oc9ccc([N+](=O)[O-])cc9)O[C@@H]8C(=O)O)O[C@@H]7COS(=O)(=O)O)O[C@H]6C(=O)O)O[C@@H]5COS(=O)(=O)O)O[C@H]4C(=O)O)O[C@@H]3COS(=O)(=O)O)O[C@@H]2C(=O)O)O[C@H](COS(=O)(=O)O)[C@@H](O)[C@@H]1O` [8-mer 3] displayed an IC50 in test [2] (substrate inhibition, compound is itself slowly sulfated) of 150 nM. Further, the Kd in test [3] is 10000 nM.
`CC(=O)N[C@H]1[C@@H](O[C@H]2[C@H](O)[C@@H](O)[C@H](O[C@H]3[C@H](O)[C@@H](NS(=O)(=O)O)[C@@H](O[C@H]4[C@H](O)[C@@H](OS(=O)(=O)O)[C@H](O[C@H]5[C@H](OS(=O)(=O)O)[C@@H](NS(=O)(=O)O)[C@@H](O[C@H]6[C@H](O)[C@@H](OS(=O)(=O)O)[C@H](O[C@H]7[C@H](O)[C@@H](NS(=O)(=O)O)[C@@H](O[C@H]8[C@H](O)[C@@H](O)[C@H](Oc9ccc([N+](=O)[O-])cc9)O[C@@H]8C(=O)O)O[C@@H]7COS(=O)(=O)O)O[C@H]6C(=O)O)O[C@@H]5COS(=O)(=O)O)O[C@H]4C(=O)O)O[C@@H]3COS(=O)(=O)O)O[C@@H]2C(=O)O)O[C@H](COS(=O)(=O)O)[C@@H](O)[C@@H]1O` [8-mer 4] registered an IC50 in test [2] (product inhibition) of 12 nM. In test [3], this molecule displayed a Kd of 4700 nM.
